Measured values taken from US20090226398A1, “ANTI-VIRAL COMPOUNDS, COMPOSITIONS, AND METHODS OF USE” (Genelabs Technologies, Inc., priority 2008, published 2009).

tested on: HCV replication; test: Replicon Assay (Huh-lucubineo-ET cells, luciferase readout); format: cell-based; details: Hepatitis C virus; ET (Huh-lucubineo-ET) HCV replicon cell line; luciferase activity 48-72 hours after compound addition; 6 dilutions
In short: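 Huh-lucubineo-ET cells stably carrying a firefly luciferase-ubiquitin-neo/NS3-5B ET replicon (adaptive mutations E1202G, T1280I, K1846T) were plated 24 h before compound, then treated at 5 or 50 μM or six 3-fold dilutions. Luciferase read 48-72 h later; % inhibition vs no-compound control, EC50/TC50 from Hill-equation fit.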

SMILES | EC50
Fc1cccc(-c2nc3cnn(Cc4ccc(OCc5ccccc5)cc4)cc-3n2)c1F [Compound 280, 5-(4-Benzyloxy-benzyl)-2-(2,3-difluoro-phenyl)-5H-imidazo[4,5-d]pyridazine] | ≥ 50 µM
Fc1cccc(-c2nc3cnn(Cc4ccc(/C=C/c5ccccc5)cc4)cc-3n2)c1F [Compound 281, 2-(2,3-Difluoro-phenyl)-5-(4-styrylbenzyl)-5H-imidazo[4,5-d]pyridazine] | 1.8 µM
Fc1cccc(-c2nc3cnn(Cc4ccc(-c5ccccc5)cc4)cc-3n2)c1F [Compound 282, 5-Biphenyl-4-ylmethyl-2-(2,3-difluoro-phenyl)-5H-imidazo[4,5-d]pyridazine] | 0.69 µM
Fc1cccc(-c2nc3cnn(Cc4ccc5occc5c4)cc-3n2)c1F [Compound 283, 5-Benzofuran-5-ylmethyl-2-(2,3-difluoro-phenyl)-5H-imidazo[4,5-d]pyridazine] | ≥ 50 µM
Fc1cccc(-c2nc3cnn(Cc4ccc5sccc5c4)cc-3n2)c1F [Compound 284, 5-Benzothiophen-5-ylmethyl-2-(2,3-difluoro-phenyl)-5H-imidazo[4,5-d]pyridazine] | ≥ 50 µM
O=[N+]([O-])c1ccc(-c2ccc(Cn3cc4nc(-c5cccc(F)c5F)nc-4cn3)cn2)c(C(F)(F)F)c1 [Compound 285, 2-(2,3-Difluoro-phenyl)-5-[6-(4-nitro-2-trifluoromethyl-phenyl)-pyridin-3-ylmethyl]-5H-imidazo[4,5-d]pyridazine] | 0.284 µM
O=[N+]([O-])c1cc(C(F)(F)F)ccc1-c1ccc(Cn2cc3nc(-c4cccc(F)c4F)nc-3cn2)cn1 [Compound 286, 2-(2,3-Difluoro-phenyl)-5-[6-(2-nitro-4-trifluoromethyl-phenyl)-pyridin-3-ylmethyl]-5H-imidazo[4,5-d]pyridazine] | 0.059 µM
COc1cccc(Cn2cc3nc(-c4cccc(F)c4F)nc-3cn2)c1 [Compound 287, 2-(2,3-Difluoro-phenyl)-5-(3-methoxy-benzyl)-5H-imidazo[4,5-d]pyridazine] | ≥ 50 µM
COC(=O)c1cc(Cn2cc3nc(-c4cccc(F)c4F)nc-3cn2)ccc1-c1ccc(OC)cc1C(F)(F)F [Compound 288, 4-[2-(2,3-Difluoro-phenyl)-imidazo[4,5-d]pyridazin-5-ylmethyl]-4′-methoxy-2′-trifluoromethyl-biphenyl-2-carboxylic acid methyl ester] | 0.2 µM
Fc1cccc(-c2nc3cnn(Cc4cccc(C(F)(F)F)c4)cc-3n2)c1F [Compound 289, 2-(2,3-Difluoro-phenyl)-5-(3-trifluoromethyl-benzyl)-5H-imidazo[4,5-d]pyridazine] | ≥ 50 µM
O=[N+]([O-])c1cccc(Cn2cc3nc(-c4cccc(F)c4F)nc-3cn2)c1 [Compound 290, 2-(2,3-Difluoro-phenyl)-5-(3-nitro-benzyl)-5H-imidazo[4,5-d]pyridazine] | ≥ 50 µM
Fc1cccc(-c2nc3cnn(Cc4cccc(-n5cccn5)c4)cc-3n2)c1F [Compound 291, 2-(2,3-Difluoro-phenyl)-5-(3-pyrazol-1-yl-benzyl)-5H-imidazo[4,5-d]pyridazine] | ≥ 50 µM
Fc1cccc(-c2nc3cnn(Cc4cccc5ccccc45)cc-3n2)c1F [Compound 292, 2-(2,3-Difluoro-phenyl)-5-naphthalen-1-ylmethyl-5H-imidazo[4,5-d]pyridazine] | ≥ 50 µM
Fc1cccc(-c2nc3cnn(Cc4ccc(-c5cncnc5)cc4)cc-3n2)c1F [Compound 293, 2-(2,3-Difluoro-phenyl)-5-(4-pyrimidin-5-yl-benzyl)-5H-imidazo[4,5-d]pyridazine] | ≥ 50 µM
COc1ccc(-c2ccc(Cn3cc4nc(-c5cccc(F)c5F)nc-4cn3)c(OC)c2)c(C(F)(F)F)c1 [Compound 294, 2-(2,3-Difluoro-phenyl)-5-(3,4′-dimethoxy-2′-trifluoromethyl-biphenyl-4-ylmethyl)-5H-imidazo[4,5-d]pyridazine] | 0.473 µM
CCCOc1ccc(-c2cnc(Cn3cc4nc(-c5cccc(F)c5F)nc-4cn3)cn2)c(C(F)(F)F)c1 [Compound 295, 2-(2,3-Difluoro-phenyl)-5-[5-(4-propoxy-2-trifluoromethyl-phenyl)-pyrazin-2-ylmethyl]-5H-imidazo[4,5-d]pyridazine] | 0.026 µM
CCCOc1ccc(-c2ccc(Cn3cc4nc(-c5cccc(F)c5F)nc-4cn3)nc2)c(C(F)(F)F)c1 [Compound 296, 2-(2,3-Difluoro-phenyl)-5-[5-(4-propoxy-2-trifluoromethyl-phenyl)-pyridin-2-ylmethyl]-5H-imidazo[4,5-d]pyridazine] | 0.023 µM
Fc1ccc(COc2ccc(Cn3cc4nc(-c5cccc(F)c5F)nc-4cn3)cc2)cc1 [Compound 297, 2-(2,3-Difluoro-phenyl)-5-[4-(4-fluoro-benzyloxy)-benzyl]-5H-imidazo[4,5-d]pyridazine] | 5.74 µM
Fc1cccc(-c2nc3cnn(Cc4ccc(-c5ccc(Br)c(C(F)(F)F)c5)nc4)cc-3n2)c1F [Compound 298, 5-[6-(4-Bromo-3-trifluoromethyl-phenyl)-pyridin-3-ylmethyl]-2-(2,3-difluorophenyl)-5H-imidazo[4,5-d]pyridazine] | ≥ 50 µM

SMILES | EC50
Fc1cccc(-c2nc3cnn(Cc4ccc(-c5ccccn5)cc4)cc-3n2)c1F [Compound 299, 2-(2,3-Difluoro-phenyl)-5-(4-pyridin-2-yl-benzyl)-5H-imidazo[4,5-d]pyridazine] | ≥ 50 µM
Fc1cccc(-c2nc3cnn(Cc4cccc(OC(F)(F)F)c4)cc-3n2)c1F [Compound 300, 2-(2,3-Difluoro-phenyl)-5-(3-trifluoromethoxy-benzyl)-5H-imidazo[4,5-d]pyridazine] | ≥ 50 µM
Fc1cccc(-c2nc3cnn(Cc4cccc(-c5ccncc5)c4)cc-3n2)c1F [Compound 301, 2-(2,3-Difluoro-phenyl)-5-(3-pyridin-4-yl-benzyl)-5H-imidazo[4,5-d]pyridazine] | 35 µM
Fc1cccc(-c2nc3cnn(Cc4ccc5ncccc5c4)cc-3n2)c1F [Compound 302, 6-[2-(2,3-Difluoro-phenyl)-imidazo[4,5-d]pyridazin-5-ylmethyl]-quinoline] | ≥ 50 µM
Fc1cccc(-c2nc3cnn(Cc4ccc(N5CCOCC5)cc4)cc-3n2)c1F [Compound 303, 2-(2,3-Difluoro-phenyl)-5-(4-morpholin-4-yl-benzyl)-5H-imidazo[4,5-d]pyridazine] | 8.53 µM
Fc1cccc(-c2nc3cnn(Cc4ccc(N5CCCCC5)cc4)cc-3n2)c1F [Compound 304, 2-(2,3-Difluoro-phenyl)-5-(4-piperidin-1-yl-benzyl)-5H-imidazo[4,5-d]pyridazine] | 3.87 µM
CC(c1ccc(-c2ccc(C(F)(F)F)cc2C(F)(F)F)cn1)n1cc2nc(-c3cccc(F)c3F)nc-2cn1 (stereo not shown) [Compound 305, 5-{1-[5-(2,4-Bis-trifluoromethyl-phenyl)-pyridin-2-yl]-ethyl}-2-(2,3-difluoro-phenyl)-5H-imidazo[4,5-d]pyridazine] | 0.278 µM
COc1ccc(-c2cnc(Cn3cc4nc(-c5cccc(F)c5F)nc-4cn3)cn2)c(C(F)(F)F)c1 [Compound 306, 2-(2,3-Difluoro-phenyl)-5-[5-(4-methoxy-2-trifluoromethyl-phenyl)-pyrazin-2-ylmethyl]-5H-imidazo[4,5-d]pyridazine] | 0.023 µM
Fc1cccc(-c2nc3cnn(Cc4ccc(Cl)nn4)cc-3n2)c1F [Compound 307, 5-(6-Chloro-pyridazin-3-ylmethyl)-2-(2,3-difluoro-phenyl)-5H-imidazo[4,5-d]pyridazine] | ≥ 50 µM
Fc1cccc(-c2nc3cnn(Cc4ccc(-n5cccn5)cc4)cc-3n2)c1F [Compound 308, 2-(2,3-Difluoro-phenyl)-5-(4-pyrazol-1-yl-benzyl)-5H-imidazo[4,5-d]pyridazine] | ≥ 50 µM
Fc1cc(Cn2cc3nc(-c4cccc(F)c4F)nc-3cn2)ccc1Br [Compound 309, 5-(4-Bromo-3-fluoro-benzyl)-2-(2,3-difluoro-phenyl)-5H-imidazo[4,5-d]pyridazine] | 61 µM
COc1ccc(-c2ccc(Cn3cc4nc(-c5cccc(F)c5F)nc-4cn3)nc2[N+](=O)[O-])c(C(F)(F)F)c1 [Compound 310, 2-(2,3-Difluoro-phenyl)-5-[5-(4-methoxy-2-trifluoromethyl-phenyl)-6-nitro-pyridin-2-ylmethyl]-5H-imidazo[4,5-d]pyridazine] | 0.762 µM
O=[N+]([O-])c1cc(Cn2cc3nc(-c4cccc(F)c4F)nc-3cn2)ccc1Br [Compound 311, 5-(4-Bromo-3-nitro-benzyl)-2-(2,3-difluoro-phenyl)-5H-imidazo[4,5-d]pyridazine] | 6.54 µM
COC(=O)c1cc(Br)ccc1Cn1cc2nc(-c3cccc(F)c3F)nc-2cn1 [Compound 312, 5-Bromo-2-[2-(2,3-difluoro-phenyl)-imidazo[4,5-d]pyridazin-5-ylmethyl]-benzoic acid methyl ester] | ≥ 50 µM
Cc1noc(-c2ccc(Cn3cc4nc(-c5cccc(F)c5F)nc-4cn3)cc2)n1 [Compound 313, 2-(2,3-Difluoro-phenyl)-5-[4-(3-methyl-[1,2,4]oxadiazol-5-yl)-benzyl]-5H-imidazo[4,5-d]pyridazine] | ≥ 50 µM
Fc1cccc(-c2nc3cnn(Cc4ccc(Oc5ccccn5)cc4)cc-3n2)c1F [Compound 314, 2-(2,3-Difluoro-phenyl)-5-[4-(pyridin-2-yloxy)-benzyl]-5H-imidazo[4,5-d]pyridazine] | ≥ 50 µM
CCOc1ccc(-c2ccc(Cn3cc4nc(-c5ccccc5F)nc-4cn3)nn2)c(C(F)(F)F)c1 [Compound 315, 5-[6-(4-Ethoxy-2-trifluoromethyl-phenyl)-pyridazin-3-ylmethyl]-2-(2-fluoro-phenyl)-5H-imidazo[4,5-d]pyridazine] | 0.02 µM
CCCOc1ccc(-c2ccc(Cn3cc4nc(-c5ccccc5F)nc-4cn3)nn2)c(C(F)(F)F)c1 [Compound 316, 2-(2-Fluoro-phenyl)-5-[6-(4-propoxy-2-trifluoromethyl-phenyl)-pyridazin-3-ylmethyl]-5H-imidazo[4,5-d]pyridazine] | 0.032 µM
